Source: patent US8629116B2, “Method for inducing a TRIF-bias” (priority 2008, dated 2014)
Read-outs that look alike come from different tables or passages of the source.

Assays:
[1] = tested on: RAW264.7 siRNA cell lines; assay: Cytokine production in stably transfected RAW264.7 siRNA (MyD88, TRIF, LUC) cell lines; type: cell-based, mouse; settings: for potency for TNFα production: 20 hours
Procedure: Exponentially growing RAW264.7 cells are stably transfected with FuGene 6 by conventional methods in Optimem (Roche, Indianapolis Ind.) with psiRNA-mTICAM1, psiRNA-mMyD88, or psiRNA-LUC (irrelevant control) plasmids containing shRNA sequences for protein knockdown, a Zeocin resistance gene and a GFP coding sequence (InVivoGen, San Diego, Calif.). Transfection efficiency after selection is determined by percent GFP positive cells using the ImageStream.
RNA interference (RNAi) is utilized to disrupt expression of specific genes that are involved in TLR signaling pathways: […] and MyD88. RAW264.7 siRNA cell lines are prepared using commercially available plasmids (Invivogen). These plasmids contain a Zeocin selection marker, a sequence coding for GFP and the sequence coding for shRNA for knockdown. Once the cells are efficiently transfected, stable cell lines are generated through antibiotic selection. Purity of cultures is determined by GFP+ cells within the culture system. An irrelevant plasmid is also used to stably transfect cells as a control.
To determine whether TRIF or MyD88 are required for the cytokine response after stimulation with L and D isomers, stably transfected siRNA cell lines are stimulated for 20 hours (in an assay similar to the MM6 potency assay) or 4 hours (to capture MyD88 induced cytokine responses) and cellular supernatants are assayed for TNFα (MyD88) and IP-10 (TRIF). Twenty hours post-stimulation, the irrelevant control, LUC cell line has a similar IP-10 induction pattern as the wt RAW264.7 cells shown previously. […] When TRIF is intact (in MyD88 knockdown cell lines) the IP-10 levels remain dose responsive and total cytokine is increased above the irrelevant control (LUC). Other assay systems (including human and mouse systems) support the hypothesis that both L and D isomers are efficient at inducing TRIF mediated cytokines.
In order to better discriminate the MyD88 requirement for TNFα production, siRNA knockdown cell lines are examined for TNFα production after four hours of AGP stimulation (FIG. 35). […]

[2] = tested on: human monocyte-derived dendritic cells; assay: IL-12p70 and IL-23 induction in human monocyte-derived dendritic cells; type: cell-based
Procedure: (§1) Peripheral blood mononuclear cells (PBMCs) are isolated from the blood of healthy donors via a Ficoll Hypaque 1.077 gradient and treated with agonists or are used to isolate adherent monocytes in monocyte media (RPMI 1640 (ATCC), 10% human AB serum (Lonza/BioWhittaker), 100 U/mL penicillin/100 ug/mL streptomycin (Sigma), 50 uM 2-mercaptoethanol (Sigma) as described (Stover et al. 4440-49; Kawai et al. 5887-94; Gervassi et al. 7231-39). Monocyte-derived macrophages are produced by incubating adherent monocytes for 5 days in monocyte media with 50 ng/mL rhM-CSF (R&D Systems) with media changes at day 3 and day 5 before agonist treatment. Monocyte-derived dendritic cells (DC) are produced by incubating adherent monocytes for 7 days in monocyte media with 10 ng/mL rhGM-CSF and 10 ng/mL rhIL-4 (R&D Systems) with media changes on day 3 and day 6.
Induction of inflammatory cytokines and maturation of dendritic cells (DC) contribute to the promotion of a robust immune response during the administration of an adjuvanted vaccine. Therefore, the capacity of CRX527 and CRX-547 to induce IL-12p70 in human DCs is compared. The induction of IL-12p70 promotes the development of the Th1 helper T cell lineage and favors development of a cell-mediated immune response (Goriely, Neurath, and Goldman 81-86; Gutcher and Becher 1119-27). […]

[3] = tested on: human peripheral blood mononuclear cells (PBMCs); assay: Cytokine/chemokine induction in fresh human PBMCs; type: cell-based
Procedure: as §1
Expression of TNFα and MIP-1α are dependent upon signaling through the TLR4 adaptor, MyD88, while expression of IP-10 and RANTES are dependent upon signaling through the TLR4 adaptor, TRIF/TICAM-1 (Hoebe et al, Kawai et al).

TLR4 receptor complex = molecular target: T1, TLR4 receptor complex (Homo sapiens, UniProt O00206+Q9Y6Y9); assay: Inhibition of CRX-527- or LPS-induced cytokines by CRX-547 in primary human adherent monocytes; type: cell-based; settings: for IC50: added simultaneously
T1 construct: endogenous in cells; host or cells: primary human adherent monocytes isolated from PBMCs of healthy donors
Procedure: as §1
CRX-527 signals through the TLR4/MD2 receptor complex leading to activation of transcription factors that lead to induction of cytokines and chemokines. […] (FIG. 10).
To that end, human primary monocytes are treated with a dose range of CRX-527 in the presence of increasing concentrations of CRX-547.
The resulting dose-response curves are fit with a 4 parameter logistic equation.
Plotting the log EC50 shift (DR-1) for each concentration of CRX-547 versus the log of the concentration of CRX-547 (Schild regression) allows us to compare the calculated affinity (Kbapp) with the EC50 for CRX-547 calculated from the CRX-547 and CRX-527 dose-response curve. […] (FIG. 10B.)

[4] = compared among LPS, CRX-527, CRX-547

T1 sequence (O00206 24-839): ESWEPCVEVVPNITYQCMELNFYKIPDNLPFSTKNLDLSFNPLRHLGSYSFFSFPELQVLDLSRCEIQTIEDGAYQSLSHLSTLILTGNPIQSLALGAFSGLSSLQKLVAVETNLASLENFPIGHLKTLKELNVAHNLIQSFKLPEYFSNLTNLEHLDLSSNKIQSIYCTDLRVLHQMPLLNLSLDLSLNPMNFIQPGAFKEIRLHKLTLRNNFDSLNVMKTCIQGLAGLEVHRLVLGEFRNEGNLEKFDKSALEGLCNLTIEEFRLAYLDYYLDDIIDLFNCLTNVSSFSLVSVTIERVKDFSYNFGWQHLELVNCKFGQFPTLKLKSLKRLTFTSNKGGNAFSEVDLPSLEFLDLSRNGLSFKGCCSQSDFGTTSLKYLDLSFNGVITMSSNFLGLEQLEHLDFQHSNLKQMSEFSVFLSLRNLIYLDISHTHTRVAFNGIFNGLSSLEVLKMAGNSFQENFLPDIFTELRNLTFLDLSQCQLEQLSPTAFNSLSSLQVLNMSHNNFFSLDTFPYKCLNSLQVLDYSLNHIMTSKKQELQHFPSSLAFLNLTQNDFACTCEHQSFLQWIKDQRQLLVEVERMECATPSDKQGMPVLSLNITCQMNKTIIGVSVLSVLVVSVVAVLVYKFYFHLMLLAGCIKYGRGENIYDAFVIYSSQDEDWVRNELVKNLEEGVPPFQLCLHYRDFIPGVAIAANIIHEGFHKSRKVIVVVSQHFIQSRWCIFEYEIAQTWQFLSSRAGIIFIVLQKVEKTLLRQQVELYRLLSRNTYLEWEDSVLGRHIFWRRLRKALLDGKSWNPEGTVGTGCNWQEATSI
T1 sequence (Q9Y6Y9 19-160): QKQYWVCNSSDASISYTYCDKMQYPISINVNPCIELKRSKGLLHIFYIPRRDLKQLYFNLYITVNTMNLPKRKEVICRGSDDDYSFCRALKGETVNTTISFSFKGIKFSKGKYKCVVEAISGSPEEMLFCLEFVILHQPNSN

| Compound | potency for TNFα production ([1]; MyD88 or TRIF knocked down) | potency at inducing TNFα versus equivalent dose of CRX-547 ([1]; four hours) | potency for TNFα production ([1]; irrelevant control (LUC)) | IL-23 expression ([2]; dendritic cells, compared with CRX-527) | IL-12p70 response ([2]; human monocyte-derived DC, compared to CRX-527 and LPS) | induction of MIP-1α (MyD88-dependent) [3, 4] | induction of TNFα (MyD88-dependent) [3, 4] | induction of IP-10 (TRIF-dependent) ([3]; relative to CRX-527 and LPS) | induction of RANTES (TRIF-dependent) ([3]; relative to CRX-527 and LPS) | effect of CRX-547 on MCP-1 (TRIF-dependent) induction by fixed CRX-527 or LPS (TLR4 receptor complex; at higher concentrations of CRX-547) | IC50 (TLR4 receptor complex; fixed CRX-527 100 nM, read-out: IC50 for inhibition of TNFα induction by CRX-527) [nM] | IC50 (TLR4 receptor complex; fixed LPS 100 nM, read-out: IC50 for inhibition of TNFα induction by LPS) [nM] | effect of CRX-547 on TNFα induction by fixed concentration of CRX-527 or LPS (TLR4 receptor complex; increasing CRX-547 added prior to CRX-527 or LPS) | agonist character for induction of MyD88-dependent cytokines/chemokines (TLR4 receptor complex; relative to CRX-527 and LPS, monocytic cells) | Kd (TLR4 receptor complex; shift of CRX-527-induced TNFα dose-response curves, read-out: affinity estimate (Kbapp) by Schild regression) [nM] |
| --- | --- | --- | --- | --- | --- | --- | --- | --- | --- | --- | --- | --- | --- | --- | --- |
| CCCCCCCCCCCC(CC(=O)NC(COC1OC(CO)C(OP(=O)(O)O)C(OC(=O)CC(CCCCCCCCCCC)OC(=O)CCCCCCCCC)C1NC(=O)CC(CCCCCCCCCCC)OC(=O)CCCCCCCCC)C(=O)O)OC(=O)CCCCCCCCC.CCN(CC)CC (stereo not drawn) [CRX-527] | same increased potency | more potent | more potent | – | – | – | – | – | – | – | – | – | – | – | – |
| CCCCCCCCCCCC(CC(=O)NC(COC1OC(CO)C(OP(=O)(O)O)C(OC(=O)CC(CCCCCCCCCCC)OC(=O)CCCCCCCCC)C1NC(=O)CC(CCCCCCCCCCC)OC(=O)CCCCCCCCC)C(=O)O)OC(=O)CCCCCCCCC.CCN(CC)CC (stereo not drawn) [CRX-547] | – | – | – | reduced virtually to base-line levels | significantly reduced | significantly lower levels | significantly lower levels | comparable levels | comparable levels | increased additively | 48 ± 30 | 18 ± 12 | inhibited | partial agonist | 0.33 |
